Calls of active or inactive are those of the source.
Legend:
[1] = target: Glyceraldehyde-3-phosphate dehydrogenase (Homo sapiens, UniProt P04406)
Bcl-2-related protein A1 [2] = target: T1, Bcl-2-related protein A1 (Mus musculus, UniProt Q07440); test: Bfl-1 inhibitors blocking BH3 peptide binding, confirmation, biochemical, TR-FRET, mouse Bfl-1 (AID 621);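 further: TR-FRET binding of GST-Bfl-1 to FITC-labelled Bid peptide via terbium antibody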
T1 sequence (Q07440 whole entry): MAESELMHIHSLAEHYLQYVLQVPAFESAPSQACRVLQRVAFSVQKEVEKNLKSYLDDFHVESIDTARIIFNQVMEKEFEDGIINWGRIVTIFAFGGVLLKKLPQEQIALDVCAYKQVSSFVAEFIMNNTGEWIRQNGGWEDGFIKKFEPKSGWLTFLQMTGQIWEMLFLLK

Bcl-2-related protein A1 [3] = target: T1, Bcl-2-related protein A1; test: Bfl-1 binding inhibitors, SAR follow-up, biochemical, fluorescence polarization (AID 1070)
[4] = target: Protein-tyrosine kinase 2-beta (Homo sapiens, UniProt Q14289);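 further: potency of inhibitors of PYK2 kinase phosphorylation of poly-GT substrate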
NADPH oxidase 1 = target: T2, NADPH oxidase 1 (Homo sapiens, UniProt Q9Y5S8); test: Late-stage luminescence-based cell-based dose response assay to identify inhibitors of NADPH oxidase 1 (NOX1): Synthesized analogs.; type: functional
T2 sequence (Q9Y5S8 whole entry): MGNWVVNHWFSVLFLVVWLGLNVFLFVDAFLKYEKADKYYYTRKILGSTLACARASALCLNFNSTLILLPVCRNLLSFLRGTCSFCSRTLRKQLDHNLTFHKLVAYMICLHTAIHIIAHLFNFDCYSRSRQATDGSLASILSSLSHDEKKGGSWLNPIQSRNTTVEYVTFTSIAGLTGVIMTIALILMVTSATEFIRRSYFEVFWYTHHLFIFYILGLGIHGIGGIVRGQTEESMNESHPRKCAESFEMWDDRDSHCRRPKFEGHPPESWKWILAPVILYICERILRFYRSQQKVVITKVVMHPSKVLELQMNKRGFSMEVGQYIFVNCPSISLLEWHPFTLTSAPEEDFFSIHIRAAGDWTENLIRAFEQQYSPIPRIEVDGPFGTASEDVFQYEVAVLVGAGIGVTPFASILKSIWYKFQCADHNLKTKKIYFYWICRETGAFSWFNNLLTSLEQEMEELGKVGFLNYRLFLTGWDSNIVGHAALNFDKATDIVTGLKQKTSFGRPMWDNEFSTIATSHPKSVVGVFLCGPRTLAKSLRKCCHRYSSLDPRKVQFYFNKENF

[5] = target: Potassium voltage-gated channel subfamily KQT member 2 (Rattus norvegicus, UniProt O88943, W236L); test: KCNQ2 channel potentiators, dose response, mechanism study for KCNQ2 potentiator project, cell-based, automated electrophysiology (AID 2603); type: functional
[6] = Luminescence Cell-Based Dose Response to Identify Activators of 5'UTR Stem-Loop Driven Prion Protein mRNA Translation in H4-C Neuroglioblastoma Cells. [Related pubchem assays: 1829 (Project Summary), 1814 (Primary HTS)]; type: functional
[7] = Luminescence Cell-Based Dose Response HTS to Identify Activators of Luciferase Translation or Activity in H4 […] Cells. [Related pubchem assays: 1829 (Project Summary), 1814 (Primary HTS)]; type: functional
H4 = test: Luminescence Cell-Based Dose Response HTS to Identify Activators of 5'UTR Stem-Loop Driven Prion Protein mRNA Translation in H4 Neuroglioblastoma Cells. [Related pubchem assays: 1829 (Project Summary), 1814 (Primary HTS)]; type: functional; conditions: Homo sapiens
[8] = Luminescence Cell-Based Dose Response to Identify Activators of Luciferase Translation or Activity in H4-C Neuroglioblastoma Cells. [Related pubchem assays: 1829 (Project Summary), 1814 (Primary HTS)]; type: functional
[9] = Luminescence Cell-Based Dose Confirmation to Identify Activators of 5'UTR Stem-Loop Driven Alpha-Synuclein mRNA Translation in H4 Neuroglioblastoma Cells. [Related pubchem assays: 1829 (Project Summary), 1814 (Primary HTS)]; type: functional
[10] = target: T3, E3 ubiquitin-protein ligase XIAP (Homo sapiens, UniProt P98170); test: Counter Screen using XIAP-Bir3 for Chemical Antagonists of Bir1/2 domains of IAP-family anti-apoptotic proteins. [Related pubchem assays (depositor defined):AID1018, AID1449, AID1514, AID1638, AID1749, AID1750, AID488957, AID488963]
[11] = target: T3, E3 ubiquitin-protein ligase XIAP; test: XIAP antagonists, biochemical, IAP family, fluorescence polarization (AID 1018); type: functional
[12] = target: T4, Induced myeloid leukemia cell differentiation protein Mcl-1 (Homo sapiens, UniProt Q07820); test: MCL1-BIM BH3 interaction inhibitors, dose response, biochemical, fluorescence polarization, BIM-BH3 peptide, 1536-well (AID 2217)
Bcl-2-like protein 1 = Bcl-2-like protein 1 (Homo sapiens, UniProt Q07817); test: BCL-XL inhibitors, dose response, selectivity assay for MCL1 inhibitor project, biochemical, fluorescence polarization, 1536-well (AID 2218)
[13] = target: T5, Carboxy-terminal domain RNA polymerase II polypeptide A small phosphatase 1 (Homo sapiens, UniProt Q9GZU7); test: inhibitors of CTDSP1, concentration-response testing, biochemical assay, absorbance-based, actives from ultra-high-throughput screening (AID 540297); type: functional
T5 sequence (Q9GZU7 whole entry): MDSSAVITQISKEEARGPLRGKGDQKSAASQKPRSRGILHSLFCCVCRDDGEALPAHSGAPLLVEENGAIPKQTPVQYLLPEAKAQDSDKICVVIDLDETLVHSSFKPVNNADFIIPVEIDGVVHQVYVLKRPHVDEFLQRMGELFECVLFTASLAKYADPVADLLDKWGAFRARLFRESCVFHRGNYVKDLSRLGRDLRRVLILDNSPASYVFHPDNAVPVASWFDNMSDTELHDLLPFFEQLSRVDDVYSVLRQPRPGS

Caspase-6 = target: T6, Caspase-6 (Homo sapiens, UniProt P55212); test: human caspase-6 inhibitors, dose response, biochemical, VEID-R110 fluorescence, cherry-pick (AID 720632)
T6 sequence (P55212 whole entry): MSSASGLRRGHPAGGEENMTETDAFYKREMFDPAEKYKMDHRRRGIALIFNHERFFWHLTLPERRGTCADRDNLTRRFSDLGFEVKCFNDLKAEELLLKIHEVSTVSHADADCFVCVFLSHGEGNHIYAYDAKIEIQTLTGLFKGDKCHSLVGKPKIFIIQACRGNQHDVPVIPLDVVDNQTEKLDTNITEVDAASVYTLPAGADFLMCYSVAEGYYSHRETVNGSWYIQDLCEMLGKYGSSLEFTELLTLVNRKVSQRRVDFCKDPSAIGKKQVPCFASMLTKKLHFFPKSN

Caspase-7 = Caspase-7 (Homo sapiens, UniProt P55210); test: human caspase-7 inhibitors, dose response, selectivity assay for caspase-6 inhibitor project, biochemical, DEVD-R110 fluorescence, cherry-pick (AID 743295)
Caspase-8 = Caspase-8 (Homo sapiens, UniProt Q14790); test: caspase-8 inhibition counter-screen, dose response, selectivity assay for caspase-6 inhibitor project, biochemical, Z-IETD-R110 fluorescence, cherry-picked samples (AID 743294)
[14] = target: Peroxisome proliferator-activated receptor gamma/Nuclear receptor corepressor 2 (Homo sapiens, UniProt P37231+Q9Y618); test: Counterscreen for NR2E3 inverse agonists: TR-FRET-based biochemical high throughput dose response assay to identify inverse agonists of the interaction between peroxisome proliferator-activated receptor gamma (PPARg) and nuclear receptor co-repressor 2 (NCOR2).; type: functional
[15] = target: Photoreceptor-specific nuclear receptor (Homo sapiens, UniProt Q9Y5X4); test: NR2E3 inverse agonists, dose response, biochemical, TR-FRET (AID 463256); type: functional
[16] = target: T7, Small ubiquitin-related modifier 1 (Homo sapiens, UniProt P63165); test: inhibitors of SUMO1 peptide binding, dose response, biochemical, fluorescence polarization, uHTS hits (AID 624382); type: functional; conditions: read-out: IC50_Mean
[17] = target: T7, Small ubiquitin-related modifier 1; test: inhibitors of SUMO1 partner interactions, dose response, biochemical, FRET (AID 624383); type: functional; conditions: read-out: IC50_Mean
[18] = target: Mitogen-activated protein kinase 10 (Homo sapiens, UniProt P53779); test: Dose response biochemical screening assay for inhibitors of c-Jun N-Terminal Kinase 3 (JNK3). [Related pubchem assays: 746 ]
[19] = target: T8, Heat shock factor protein 1 (Mus musculus, UniProt P38532); test: inhibition of MG132-induced HSE-luciferase signal, confirmation, cell-based, NIH3T3, luminescence, dose retest (AID 2382); type: functional;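 further: NIH3T3 fibroblasts with HSF1-driven luciferase reporter stressed by proteasome inhibitor MG132; luminescence from HSF1-driven luciferase expression after 8 hours of MG132 stress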
T8 sequence (P38532 whole entry): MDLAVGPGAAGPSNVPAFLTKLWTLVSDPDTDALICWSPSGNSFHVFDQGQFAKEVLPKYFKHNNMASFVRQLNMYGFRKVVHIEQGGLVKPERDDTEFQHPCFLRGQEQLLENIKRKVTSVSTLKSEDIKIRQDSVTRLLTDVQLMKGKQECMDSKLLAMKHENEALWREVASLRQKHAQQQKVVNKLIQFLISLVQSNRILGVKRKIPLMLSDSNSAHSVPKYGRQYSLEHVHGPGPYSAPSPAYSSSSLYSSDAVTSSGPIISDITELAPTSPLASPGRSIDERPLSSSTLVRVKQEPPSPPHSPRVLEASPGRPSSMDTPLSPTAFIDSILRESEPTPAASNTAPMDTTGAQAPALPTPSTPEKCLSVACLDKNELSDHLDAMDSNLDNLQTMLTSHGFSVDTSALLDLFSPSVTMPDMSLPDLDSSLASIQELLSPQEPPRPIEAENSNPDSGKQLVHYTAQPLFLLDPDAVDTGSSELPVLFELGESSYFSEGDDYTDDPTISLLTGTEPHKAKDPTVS

[20] = inhibitors of intracellular T. cruzi replication, confirmation, NIH3T3 host cells, beta-gal luminescence (AID 2044); type: functional, cell-based;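 further: intracellular parasites grown in NIH/3T3 mouse fibroblasts as host cells; luminescent beta-galactosidase reporter signal from transgenic T. cruzi replicating inside host cells; inhibitors lower the luminescence signal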
[21] = microbe, parasite or virus in culture; type: functional; conditions: Mycobacterium tuberculosis
[22] = cytotoxicity toward NIH3T3 fibroblasts, dose response, counter-screen, cell-based, ATP luminescence, mouse fibroblasts (AID 2010); type: functional;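 further: cells exposed to compound for about 90 hours before reading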
[23] = target: Heat shock protein HSP 90-alpha (Homo sapiens, UniProt P07900); test: Luminescence-based dose response biochemical high throughput screening assay for inhibitors of the Heat Shock Protein 90 (HSP90). [Related pubchem assays: 1831 (Summary AID.), 1846 (Confirmation screen.), 1789 (Primary screen.)]
[24] = THP-1 cell cytotoxicity, dose response, cytotoxicity control for non-replicating M. tuberculosis project (AID 489025); type: functional
cells [25] = type: functional
cells [26] = test: cells
[27] = Luminescent dose response cell-based high throughput screening assay for inhibitors of the Janus kinase 2 mutant JAK2V617F. [Related pubchem assays: 1446 (Primary screen.), 1521 (Confirmation assay.), 1486 (Counter screen.)]; type: functional
[28] = cytotoxicity in HPDE-C7 cells, cell-based, fluorescence, HTS (AID 430); type: functional; conditions: Homo sapiens
[29] = cytotoxicity in KRAS-transformed pancreatic duct cells, primary screen, cell-based, fluorescence, HTS (AID 431); type: functional; conditions: Homo sapiens;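 further: cell line used: HPDE-C7K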
Vero [30] = test: host cell cytotoxicity of antiviral hits, dose response, cytotoxicity control for West Nile virus antiviral project, secondary assay (AID 1650); type: functional; conditions: Chlorocebus sabaeus
Vero [31] = test: West Nile virus antiviral activity, cell-based, CPE readout (AID 1621); type: functional; conditions: Chlorocebus sabaeus
[32] = target: T4, Induced myeloid leukemia cell differentiation protein Mcl-1; type: functional
[33] = Luminescence Cell-Based Dose Retest to Confirm Inhibitors of Cancer Stem Cells. [Related pubchem assays (depositor defined):AID2717, AID2721]; type: functional; conditions: Homo sapiens

T7 sequence (P63165 whole entry): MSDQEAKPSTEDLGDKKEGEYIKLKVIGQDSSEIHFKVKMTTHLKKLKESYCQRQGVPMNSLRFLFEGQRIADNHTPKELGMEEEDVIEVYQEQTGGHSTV
T4 sequence (Q07820 whole entry): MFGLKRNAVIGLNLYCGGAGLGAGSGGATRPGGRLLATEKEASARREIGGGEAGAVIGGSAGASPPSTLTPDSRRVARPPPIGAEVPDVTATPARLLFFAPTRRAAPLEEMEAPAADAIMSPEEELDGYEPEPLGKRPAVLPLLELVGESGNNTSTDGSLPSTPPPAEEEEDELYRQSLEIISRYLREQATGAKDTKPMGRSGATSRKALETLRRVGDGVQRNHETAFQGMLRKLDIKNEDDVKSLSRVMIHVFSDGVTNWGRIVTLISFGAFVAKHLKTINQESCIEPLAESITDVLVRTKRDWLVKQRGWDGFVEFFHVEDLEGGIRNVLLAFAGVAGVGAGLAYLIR
T3 sequence (P98170 whole entry): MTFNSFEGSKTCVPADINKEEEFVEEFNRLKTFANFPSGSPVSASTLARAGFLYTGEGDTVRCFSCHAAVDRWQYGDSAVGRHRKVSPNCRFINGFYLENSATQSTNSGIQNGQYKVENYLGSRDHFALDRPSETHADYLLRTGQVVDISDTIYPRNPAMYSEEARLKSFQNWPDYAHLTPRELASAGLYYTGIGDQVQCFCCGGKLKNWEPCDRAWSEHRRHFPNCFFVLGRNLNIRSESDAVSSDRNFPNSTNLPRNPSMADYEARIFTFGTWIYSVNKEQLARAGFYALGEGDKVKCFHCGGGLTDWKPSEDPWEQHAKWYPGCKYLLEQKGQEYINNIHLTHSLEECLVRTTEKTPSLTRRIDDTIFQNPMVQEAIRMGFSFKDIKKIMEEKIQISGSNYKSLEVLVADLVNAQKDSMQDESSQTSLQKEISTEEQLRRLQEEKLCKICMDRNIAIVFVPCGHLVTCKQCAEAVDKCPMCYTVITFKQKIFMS
Sequence of Protein-tyrosine kinase 2-beta (Q14289 whole entry): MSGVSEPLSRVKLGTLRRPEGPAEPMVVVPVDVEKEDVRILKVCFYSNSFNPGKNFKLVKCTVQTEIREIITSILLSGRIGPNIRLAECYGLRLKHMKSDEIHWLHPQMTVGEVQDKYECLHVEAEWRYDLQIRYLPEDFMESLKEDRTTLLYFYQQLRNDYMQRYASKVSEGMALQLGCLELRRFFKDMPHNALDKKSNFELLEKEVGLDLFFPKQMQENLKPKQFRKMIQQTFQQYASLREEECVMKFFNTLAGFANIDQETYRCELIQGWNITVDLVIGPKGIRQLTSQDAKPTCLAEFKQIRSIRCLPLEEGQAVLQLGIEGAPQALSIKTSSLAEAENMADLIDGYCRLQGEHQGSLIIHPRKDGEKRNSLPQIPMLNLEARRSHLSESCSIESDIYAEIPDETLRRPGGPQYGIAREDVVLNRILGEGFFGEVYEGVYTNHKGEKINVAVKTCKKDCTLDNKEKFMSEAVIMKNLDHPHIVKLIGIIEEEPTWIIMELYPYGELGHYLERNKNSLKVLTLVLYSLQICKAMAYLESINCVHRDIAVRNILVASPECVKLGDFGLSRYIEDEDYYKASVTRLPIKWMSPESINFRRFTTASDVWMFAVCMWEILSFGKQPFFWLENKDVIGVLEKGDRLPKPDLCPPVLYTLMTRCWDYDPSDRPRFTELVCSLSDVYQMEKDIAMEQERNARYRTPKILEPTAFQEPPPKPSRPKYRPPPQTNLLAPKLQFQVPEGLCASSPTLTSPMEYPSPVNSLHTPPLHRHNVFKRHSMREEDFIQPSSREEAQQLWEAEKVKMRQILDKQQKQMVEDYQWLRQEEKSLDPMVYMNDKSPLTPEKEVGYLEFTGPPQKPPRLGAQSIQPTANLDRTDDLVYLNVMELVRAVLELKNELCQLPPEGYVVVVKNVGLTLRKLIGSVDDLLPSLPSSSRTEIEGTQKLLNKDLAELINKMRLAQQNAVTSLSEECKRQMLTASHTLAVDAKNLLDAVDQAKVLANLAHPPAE
Sequence of Bcl-2-like protein 1 (Q07817 whole entry, the tested form may be a part): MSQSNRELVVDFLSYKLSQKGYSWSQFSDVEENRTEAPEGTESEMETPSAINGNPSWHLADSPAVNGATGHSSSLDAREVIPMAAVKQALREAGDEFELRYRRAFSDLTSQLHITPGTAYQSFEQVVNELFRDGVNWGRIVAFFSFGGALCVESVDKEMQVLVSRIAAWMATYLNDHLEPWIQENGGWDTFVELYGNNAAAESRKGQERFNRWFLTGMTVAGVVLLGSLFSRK
Sequence of Caspase-7 (P55210 24-198 limits assumed): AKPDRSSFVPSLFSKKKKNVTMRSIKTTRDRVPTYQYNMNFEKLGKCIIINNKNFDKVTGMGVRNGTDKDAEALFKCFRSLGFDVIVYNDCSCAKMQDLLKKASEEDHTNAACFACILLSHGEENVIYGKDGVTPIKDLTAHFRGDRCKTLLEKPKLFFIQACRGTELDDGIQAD
Sequence of Caspase-7 (P55210 207-303 limits assumed): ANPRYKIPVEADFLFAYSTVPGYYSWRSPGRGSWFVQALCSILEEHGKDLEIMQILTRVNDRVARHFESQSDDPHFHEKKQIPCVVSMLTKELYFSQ
Sequence of Potassium voltage-gated channel subfamily KQT member 2 (O88943 whole entry W236L): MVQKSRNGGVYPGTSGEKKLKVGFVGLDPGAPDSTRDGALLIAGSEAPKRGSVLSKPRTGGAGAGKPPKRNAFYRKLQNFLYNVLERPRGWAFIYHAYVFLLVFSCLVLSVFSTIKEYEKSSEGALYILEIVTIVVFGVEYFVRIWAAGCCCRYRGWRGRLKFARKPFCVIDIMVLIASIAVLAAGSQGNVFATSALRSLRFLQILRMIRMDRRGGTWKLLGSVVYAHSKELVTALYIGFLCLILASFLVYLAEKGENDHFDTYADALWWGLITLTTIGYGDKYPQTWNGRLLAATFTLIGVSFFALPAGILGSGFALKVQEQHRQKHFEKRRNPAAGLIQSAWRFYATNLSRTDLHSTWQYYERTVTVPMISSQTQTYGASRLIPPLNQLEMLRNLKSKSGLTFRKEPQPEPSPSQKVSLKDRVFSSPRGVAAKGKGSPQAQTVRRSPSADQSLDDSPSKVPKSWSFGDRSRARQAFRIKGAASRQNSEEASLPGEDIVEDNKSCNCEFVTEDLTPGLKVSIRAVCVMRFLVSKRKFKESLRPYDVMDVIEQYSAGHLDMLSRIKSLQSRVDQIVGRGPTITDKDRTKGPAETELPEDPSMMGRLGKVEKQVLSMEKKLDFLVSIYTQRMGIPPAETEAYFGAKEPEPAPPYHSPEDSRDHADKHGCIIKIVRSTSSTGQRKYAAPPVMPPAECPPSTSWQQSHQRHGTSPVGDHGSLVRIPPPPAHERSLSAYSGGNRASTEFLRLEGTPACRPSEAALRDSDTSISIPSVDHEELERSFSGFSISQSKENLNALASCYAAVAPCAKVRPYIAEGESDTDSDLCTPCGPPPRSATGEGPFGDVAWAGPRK
Sequence of Caspase-8 (Q14790 217-374 limits assumed): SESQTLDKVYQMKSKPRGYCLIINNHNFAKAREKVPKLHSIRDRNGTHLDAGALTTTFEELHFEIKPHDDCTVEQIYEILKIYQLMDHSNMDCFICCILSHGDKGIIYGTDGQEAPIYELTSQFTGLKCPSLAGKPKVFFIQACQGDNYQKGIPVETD
Sequence of Caspase-8 (Q14790 385-479 limits assumed): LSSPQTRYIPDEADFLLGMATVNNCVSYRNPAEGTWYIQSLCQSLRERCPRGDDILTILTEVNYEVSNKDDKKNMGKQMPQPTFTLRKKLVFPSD
Sequence of Mitogen-activated protein kinase 10 (P53779 whole entry): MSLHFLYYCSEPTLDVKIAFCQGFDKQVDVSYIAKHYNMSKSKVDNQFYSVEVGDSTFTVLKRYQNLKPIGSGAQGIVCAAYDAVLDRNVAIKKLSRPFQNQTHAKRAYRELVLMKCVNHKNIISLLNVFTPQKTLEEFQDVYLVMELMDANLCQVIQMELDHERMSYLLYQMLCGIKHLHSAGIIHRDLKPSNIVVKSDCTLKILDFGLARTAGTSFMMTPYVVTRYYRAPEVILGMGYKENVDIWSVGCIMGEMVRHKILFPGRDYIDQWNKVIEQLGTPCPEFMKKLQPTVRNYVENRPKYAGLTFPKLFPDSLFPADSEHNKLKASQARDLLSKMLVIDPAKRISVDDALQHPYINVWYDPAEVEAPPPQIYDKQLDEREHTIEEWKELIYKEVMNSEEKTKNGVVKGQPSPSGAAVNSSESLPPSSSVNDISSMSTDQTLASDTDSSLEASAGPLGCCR
Sequence of Photoreceptor-specific nuclear receptor (Q9Y5X4 whole entry): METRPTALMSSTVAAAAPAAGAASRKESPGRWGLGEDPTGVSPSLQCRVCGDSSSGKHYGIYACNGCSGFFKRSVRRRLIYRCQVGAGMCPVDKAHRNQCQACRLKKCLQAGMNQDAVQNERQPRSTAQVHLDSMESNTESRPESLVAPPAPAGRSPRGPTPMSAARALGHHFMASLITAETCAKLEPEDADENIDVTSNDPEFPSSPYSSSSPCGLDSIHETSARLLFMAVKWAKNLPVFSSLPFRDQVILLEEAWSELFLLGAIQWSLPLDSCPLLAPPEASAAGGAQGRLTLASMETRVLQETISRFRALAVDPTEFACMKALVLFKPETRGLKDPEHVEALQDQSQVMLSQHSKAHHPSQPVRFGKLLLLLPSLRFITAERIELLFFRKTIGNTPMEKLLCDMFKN
Sequence of Glyceraldehyde-3-phosphate dehydrogenase (P04406 whole entry): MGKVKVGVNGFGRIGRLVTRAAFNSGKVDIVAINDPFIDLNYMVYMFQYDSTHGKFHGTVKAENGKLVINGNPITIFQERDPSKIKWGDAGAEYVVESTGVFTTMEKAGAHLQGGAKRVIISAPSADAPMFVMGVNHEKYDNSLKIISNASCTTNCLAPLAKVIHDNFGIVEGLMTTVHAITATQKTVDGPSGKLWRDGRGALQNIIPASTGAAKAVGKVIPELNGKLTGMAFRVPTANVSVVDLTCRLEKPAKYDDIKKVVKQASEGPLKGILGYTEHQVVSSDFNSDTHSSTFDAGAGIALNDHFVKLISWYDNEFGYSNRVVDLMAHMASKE

## CN1CCN(C2=C(Cl)C(=O)N(c3cc(Cl)cc(Cl)c3)C2=O)CC1
[1]
  IC50: > 100 µM (not active)
Bcl-2-related protein A1 [2]
  IC50: 1.66 µM (active)
Bcl-2-related protein A1 [3]
  IC50: 2.44 µM (active)

## O=C1NCCc2c1[nH]c1c(Cl)ccc(Cl)c21
[4]
  IC50: 10.2 µM (not active)

## CC(=NNC(=O)c1ccc(O)cc1)c1ccc2c(c1)Nc1ccccc1S2
NADPH oxidase 1
  IC50: 0.382 µM (active)

## Cc1ccc(NC(=O)C2CC2c2ccccc2)c([N+](=O)[O-])c1 (configuration not stated)
[5]
  EC50: 11.4 µM (active)

## CS(=O)(=O)c1nc(S(=O)(=O)c2ccc(Cl)cc2)c(N2CCC3(CC2)OCCO3)s1
[6]
  EC50: > 12 µM (not active)
[7]
  EC50: < 0.1 µM (active)
H4
  EC50: > 120 µM (not active)
[8]
  EC50: > 12 µM (not active)
[9]
  EC50: 0.71 µM (active)

## COc1ccc(NC(=O)/C(=C/c2cccnc2)NC(=O)c2cccs2)cc1
[10]
  IC50: > 100 µM (inactive)
[11]
  IC50: > 100 µM (not active)

## Cc1cccc(NC(=O)CNC(=O)c2cccc(-n3cccc3)c2)c1C
[12]
  IC50: 8.77 µM (active)
Bcl-2-like protein 1
  IC50: > 109 µM (not active)
[13]
  IC50: 3.97 µM (active)
Caspase-6
  AC50: 1.55 µM (active)
Caspase-7
  AC50: > 70 µM (inactive)
Caspase-8
  AC50: > 70 µM (inactive)

## COc1cccc(-c2csc3nnc(SCC(=O)c4ccc(NC(C)=O)cc4)n23)c1
[14]
  IC50: 6.73 µM (active)
[15]
  IC50: 4.9 µM (active)
[16]
  IC50: > 66.6 µM (inactive)
[17]
  IC50: 10.6 µM (active)

## COc1ccc(CC(=O)Nc2nc(C)cs2)cc1OC
[18]
  IC50: 27.9 µM (not active)

## COc1cccc(-c2cc3nc4c(c(NCC(C)(C)CN(C)C)n3n2)CCCC4)c1
[19]
  EC50: 0.775 µM (active)
[20]
  EC50: 0.487 µM (active)
[21]
  CC50: 34.2 µM (active)
[22]
  EC50: > 60 µM (not active)
[23]
  IC50: 2.39 µM (active)
[24]
  CC50: 28.9 µM (active)
Cells [25]
  IC50: 19.2 µM (active)

## CN(C)CCNc1c2c(c(C#N)c3nc4ccccc4n13)CCCC2
[20]
  EC50: < 0.1 µM (active)
[22]
  EC50: > 60 µM (not active)
Cells [25]
  IC50: 20.9 µM (active)
Cells [26]
  EC50: 0.11 µM (active)

## c1ccc2c(c1)CSc1sccc1C2=C1CCNCC1
[27]
  IC50: 1.71 µM (active)

## O=c1c2c3c(sc2n2cnnc2n1Cc1ccccc1)CN(Cc1ccccc1)CC3
[28]
  EC50: 12.9 µM (active)
[29]
  EC50: 11.6 µM (active)

## CN1CCN(CCCN2c3ccccc3Sc3ccc(Cl)cc32)CC1 [PROCHLORPERAZINE]
Vero [30]
  CC50: 29.4 µM (active)
Vero [31]
  IC50: 19.1 µM (active)
[32]
  IC50: 3.77 µM (active)
[33]
  AC50: 4.93 µM (active)
